Experimental findings from ChEMBL document CHEMBL5724709, “EUbOPEN Chemogenomics Library - IncuCyte” (2024) are described below.

Assay type in all cases: toxicity, cell-based
One data set concerns U2OS. As to the kind of experiment: Incucyte cell viability with U2OS. Particulars: human, 24 h, 10 µM, compound concentration 10 uM.
A further data set relates to HEK-293T. As to the kind of experiment: Incucyte cell viability with HEK293T. The note with it: human, 24 h, 10 µM, compound concentration 10 uM.
For the next data set, the system named is Fibroblast. In words: Incucyte cell viability with human fibroblast. Particulars: 24 h, 10 µM, compound concentration 10 uM.

The structures appear in SMILES notation. Square brackets hold non-standard residues; d marks the D form. Peptide text beside a SMILES is read from it. * marks the point of attachment. Benzoyl(4-OPh) = O=C(c1ccc(Oc2ccccc2)cc1)*; Lys(Et2) = CCN(CC)CCCC[C@H](N)C(=O)O; d(aIle) = CC[C@H](C)[C@@H](N)C(=O)O; Gly(cPent) = N[C@H](C(=O)O)C1CCCC1; NH(propargyl) = C#CCN*
Also: unitless GR value; below 1 slowed growth and below 0 cell loss.

Take `CC(=O)O[C@]1(C(C)=O)CC[C@H]2[C@@H]3CCC4=CC(=O)CCC4=C3[C@@H](c3ccc(N(C)C)cc3)C[C@@]21C` [ULIPRISTAL ACETATE]: the “Growth Rate” value in the data set on U2OS (replicate number 1) is 0.94; with U2OS (replicate number 2), 0.78; in the data set with HEK-293T (replicate number 1) it was 0.78; in the data set with HEK-293T (replicate number 2), 0.96; in the data set on Fibroblast (replicate number 1), 0.18; with Fibroblast (replicate number 2), 0.99.
`Cc1cc(C)cc(Oc2ccc(CNC(=O)[C@H](C)N)cc2C)c1.Cl`: the “Growth Rate” value is 0.69 in the data set on U2OS (replicate number 1); 1 in the data set with U2OS (replicate number 2); 0.84 in the data set on HEK-293T (replicate number 1); 0.89 in the data set on HEK-293T (replicate number 2); 1 in the data set with Fibroblast (replicate number 1).
For the compound `CCn1c(=O)c(C)cn(Cc2nnc(-c3ccc(F)c(O)c3F)s2)c1=O`, the “Growth Rate” value turned out to be 1 in the data set on U2OS (replicate number 1); 0.92 in the data set with U2OS (replicate number 2); 1 in the data set on HEK-293T (replicate number 1); 0.97 in the data set on HEK-293T (replicate number 2); 0.03 in the data set with Fibroblast (replicate number 1); 1 in the data set with Fibroblast (replicate number 2).
Regarding `CCCn1/c(=N/C(=O)c2cccc(C(N)=O)c2)[nH]c2ccccc21`, the “Growth Rate” value with U2OS (replicate number 1) worked out at 1; with U2OS (replicate number 2) it was 0.99; in the data set on HEK-293T (replicate number 1) it was 0.77; in the data set with HEK-293T (replicate number 2), 0.9; with Fibroblast (replicate number 1), 1.
With `CC(=O)N[C@H](C(=O)N[C@@H](CC(=O)O)C(=O)N[C@H](C(=O)N[C@@H](C)C(=O)N[C@H](C=O)CC(=O)O)C(C)C)C(C)C` (Ac-VDVAD-aldehyde), the “Growth Rate” value came out at 0.65 in the data set on U2OS (replicate number 1); 0.76 with U2OS (replicate number 2); 0.65 with HEK-293T (replicate number 1); 1 with HEK-293T (replicate number 2); 0.52 in the data set on Fibroblast (replicate number 1); 1 in the data set with Fibroblast (replicate number 2).
Regarding `CNC[C@@H](O)COc1ccc(Cl)c(-c2nc(-c3c(C)noc3C)c(C)c(N3CC4(CCN(C(=O)OC)CC4)C3)n2)c1`, the “Growth Rate” value in the data set with U2OS (replicate number 1) is 1; in the data set with HEK-293T (replicate number 1) it was 0.46; with HEK-293T (replicate number 2), 0.73; in the data set on Fibroblast (replicate number 1) it was 0.24; in the data set with Fibroblast (replicate number 2), 1.
Turning to `Oc1ccc(-c2c(-c3ccccc3)nn3c(C(F)(F)F)cc(C(F)(F)F)nc23)cc1`, the “Growth Rate” value was found to be 1 in the data set on U2OS (replicate number 1); 1 in the data set with HEK-293T (replicate number 1); 0.97 with HEK-293T (replicate number 2); 1 with Fibroblast (replicate number 1); 0.27 in the data set on Fibroblast (replicate number 2).
`Cc1nc(-c2cnc(NC(C)C)n(C)c2=O)ccc1Oc1ccnc(-c2cnn(C)c2)c1` [VIMSELTINIB]: the “Growth Rate” value was 0.42 with U2OS (replicate number 1); 0.46 with U2OS (replicate number 2); 0.39 in the data set on HEK-293T (replicate number 1); 0.02 with HEK-293T (replicate number 2); 0.29 with Fibroblast (replicate number 1); -0.35 with Fibroblast (replicate number 2).
For the compound `N#C[C@@H]1CCCN1C(=O)[C@@H]1CCCN1C(=O)CCCc1ccccc1`, the “Growth Rate” value was determined as 1 in the data set on U2OS (replicate number 1); 0.94 in the data set on U2OS (replicate number 2); 0.6 in the data set on HEK-293T (replicate number 1); 0.93 with HEK-293T (replicate number 2); 1 with Fibroblast (replicate number 1).
For `Cc1nc(F)ccc1-c1cc(Cn2ccn(C)c2=N)cc(C(=O)NCc2ccc(Cl)c(Cl)c2)c1.O=C(O)C(F)(F)F`, the “Growth Rate” value was 1 in the data set on U2OS (replicate number 1); 0.97 in the data set with HEK-293T (replicate number 1); 0.95 in the data set on HEK-293T (replicate number 2); 0.97 in the data set on Fibroblast (replicate number 1); 0.38 with Fibroblast (replicate number 2).
Turning to `CN(C)Cc1ccc(S(=O)(=O)n2ccc(/C=C/C(=O)NO)c2)cc1.Cl`, the “Growth Rate” value is listed as 0.51 with U2OS (replicate number 1); -0.17 with U2OS (replicate number 2); 0.53 in the data set with HEK-293T (replicate number 1); 0.75 with HEK-293T (replicate number 2); 0.79 with Fibroblast (replicate number 1); -0.05 with Fibroblast (replicate number 2).
As for `Nc1ccc(-c2cccs2)cc1NC(=O)c1ccc2nc(N3CCNCC3)ccc2c1`, the “Growth Rate” value was found to be 0.21 in the data set on U2OS (replicate number 1); 0.63 in the data set with U2OS (replicate number 2); 0.92 in the data set with HEK-293T (replicate number 1); 0.99 in the data set on HEK-293T (replicate number 2); 1 in the data set with Fibroblast (replicate number 1).
`Cc1ncccc1-c1cnc(NCc2c(F)ccc3c2CCO3)n2cnnc12`: the “Growth Rate” value is given as 1 with U2OS (replicate number 1); 0.88 in the data set on U2OS (replicate number 2); 0.64 in the data set on HEK-293T (replicate number 1); 1 with HEK-293T (replicate number 2); 0.59 with Fibroblast (replicate number 1); 0.1 in the data set with Fibroblast (replicate number 2).
As for `N#Cc1ccc([C@H]2CCCC[C@H]2O)cc1C(F)(F)F`, the “Growth Rate” value is listed as 1 in the data set with U2OS (replicate number 1); 0.84 with U2OS (replicate number 2); 0.83 in the data set on HEK-293T (replicate number 1); 0.95 in the data set on HEK-293T (replicate number 2); 0.21 with Fibroblast (replicate number 1); 1 in the data set with Fibroblast (replicate number 2).
Turning to `CCN(CC)S(=O)(=O)c1cc(Nc2nccc(-c3ccnc(-c4ccc(NC(=O)NC)cc4)c3)n2)ccc1Cl`, the “Growth Rate” value with U2OS (replicate number 1) is -0.05; with U2OS (replicate number 2), 0.12; in the data set on HEK-293T (replicate number 1), -0.42; with HEK-293T (replicate number 2), -0.23; in the data set with Fibroblast (replicate number 1), 0.14; in the data set with Fibroblast (replicate number 2), -0.71.
Regarding `CC(=O)N[C@@H](Cc1ccc(O)cc1)C(=O)N[C@H](C(=O)N[C@@H](C)C(=O)N[C@H](C=O)CC(=O)O)C(C)C`, the “Growth Rate” value was determined as 0.78 with U2OS (replicate number 1); 0.63 in the data set with U2OS (replicate number 2); 0.6 in the data set with HEK-293T (replicate number 1); 0.86 in the data set with HEK-293T (replicate number 2); 0.86 in the data set with Fibroblast (replicate number 1); 0.09 with Fibroblast (replicate number 2).
Take `O=C(CCl)Nc1ccc(S(=O)(=O)c2ccc(NC(=O)CCl)cc2)cc1`: the “Growth Rate” value is listed as -0.42 in the data set on U2OS (replicate number 1); 0.05 in the data set on U2OS (replicate number 2); -0.4 in the data set with HEK-293T (replicate number 1); -0.18 in the data set with HEK-293T (replicate number 2); -0.61 in the data set with Fibroblast (replicate number 1); -0.63 in the data set on Fibroblast (replicate number 2).
In the case of `CCCOc1cccc(Oc2cc3c(cc2NS(=O)(=O)c2cccc(C(=O)NCCOCCOCCOCC(=O)N[C@H](C(=O)N4C[C@H](O)C[C@H]4C(=O)NCc4ccc(-c5scnc5C)cc4)C(C)(C)C)c2)n(C)c(=O)n3C)c1`, the “Growth Rate” value in the data set with U2OS (replicate number 1) is 0.91; in the data set with U2OS (replicate number 2) it was 0.63; in the data set on HEK-293T (replicate number 1), 0.11; in the data set with HEK-293T (replicate number 2), 0.31; in the data set with Fibroblast (replicate number 1) it was 1.
For `O=C(NO)c1ccc(CN(c2cnccn2)c2cnccn2)cc1` [KA-2507], the “Growth Rate” value with U2OS (replicate number 1) is listed as -0.27; in the data set on U2OS (replicate number 2) it was 0.83; with HEK-293T (replicate number 1), 1; with Fibroblast (replicate number 1), 1; in the data set on Fibroblast (replicate number 2), 0.97.
For the compound `CC(=O)OCCN1C(=O)c2c(C)nc3ccc(S(=O)(=O)N4CCOCC4)cc3c2C1=O`, the “Growth Rate” value in the data set with U2OS (replicate number 1) was 0.83; in the data set with U2OS (replicate number 2), 1; in the data set with HEK-293T (replicate number 1), 0.92; in the data set with HEK-293T (replicate number 2) it was 1; with Fibroblast (replicate number 1) it was 0.85; with Fibroblast (replicate number 2), 1.
As for `Cc1cc(C)c(CNC(=O)c2cc(-c3ccc(N4CCN(C)CC4)nc3)cc3c2c(C)cn3C(C)C)c(=O)[nH]1`, the “Growth Rate” value with U2OS (replicate number 1) stood at 0.61; in the data set with U2OS (replicate number 2), 0.86; in the data set with HEK-293T (replicate number 1), 0.42; in the data set on HEK-293T (replicate number 2), 0.79; in the data set on Fibroblast (replicate number 1), 1.
Consider `C#CCNC(=O)[C@H](CO)NC(=O)[C@H](CCCCN(CC)CC)NC(=O)[C@H](NC(=O)[C@@H](NC(=O)c1ccc(Oc2ccccc2)cc1)C1CCCC1)[C@@H](C)CC` ({Benzoyl(4-OPh)}-[Gly(cPent)][d(aIle)][Lys(Et2)]S-{NH(propargyl)}), for which the “Growth Rate” value stood at 1 in the data set on U2OS (replicate number 1); 0.58 with HEK-293T (replicate number 1); 1 in the data set on HEK-293T (replicate number 2); 1 with Fibroblast (replicate number 1); 0.24 with Fibroblast (replicate number 2).
For `CC(C)C[C@@H](C=O)NC(=O)[C@@H](NS(=O)(=O)c1ccc(F)cc1)C(C)C`, the “Growth Rate” value in the data set with U2OS (replicate number 1) came out at 0.76; with U2OS (replicate number 2) it was 1; in the data set with HEK-293T (replicate number 1) it was 0.64; in the data set with HEK-293T (replicate number 2) it was 0.92; with Fibroblast (replicate number 1), 0.96; with Fibroblast (replicate number 2) it was 1.
`CCCOc1ccc(CCc2nc3cc(-c4c(C)noc4C)ccc3n2CCN2CCOCC2)cc1`: the “Growth Rate” value with U2OS (replicate number 1) is given as 0.57; in the data set with U2OS (replicate number 2) it was 0.8; with HEK-293T (replicate number 1) it was 0.54; in the data set with HEK-293T (replicate number 2) it was 0.57; in the data set with Fibroblast (replicate number 1), 1; in the data set with Fibroblast (replicate number 2) it was 0.67.
For `O=C(NCC1CCOCC1)c1n[nH]cc1NC(=O)c1c(F)cccc1F`, the “Growth Rate” value is 0.03 in the data set with U2OS (replicate number 1); 0.42 in the data set on U2OS (replicate number 2); 0.35 in the data set with HEK-293T (replicate number 1); 0.49 in the data set on HEK-293T (replicate number 2); -0.35 with Fibroblast (replicate number 1); 0.3 in the data set on Fibroblast (replicate number 2).
As to `CCC(CC)(NC(=O)C(C)C)C(=O)N[C@@H](CCCNC(=N)N)C(=O)NC1(C(=O)NC(c2ccc(F)cc2)c2ccc(F)cc2)CCCC1`, the “Growth Rate” value is recorded as 1 with U2OS (replicate number 1); 0.97 with U2OS (replicate number 2); 0.95 with HEK-293T (replicate number 1); 1 in the data set on HEK-293T (replicate number 2); 0.56 with Fibroblast (replicate number 1); -0.56 in the data set on Fibroblast (replicate number 2).
Take `Cc1ncsc1-c1ccc([C@H](C)NC(=O)[C@@H]2C[C@@H](O)CN2C(=O)[C@@H](NC(=O)COCCCOCCNC(=O)C[C@@H]2N=C(c3ccc(Cl)cc3)c3c(sc(C)c3C)-n3c(C)nnc32)C(C)(C)C)cc1`: the “Growth Rate” value is -0.38 with U2OS (replicate number 1); 0.03 in the data set with U2OS (replicate number 2); 0.46 in the data set on HEK-293T (replicate number 1); 0.43 with HEK-293T (replicate number 2); -0.26 with Fibroblast (replicate number 1); -0.44 in the data set with Fibroblast (replicate number 2).
On to `Br.N#Cc1ccc(-c2csc(NN=C3CCCC3)n2)cc1`, for which the “Growth Rate” value with U2OS (replicate number 1) was 0.63; in the data set on U2OS (replicate number 2) it was 1; in the data set on HEK-293T (replicate number 1) it was -0.06; in the data set with HEK-293T (replicate number 2) it was 0.21; in the data set with Fibroblast (replicate number 1) it was 0.31; with Fibroblast (replicate number 2), 0.62.
